According to EP0263214A1, “Tetrapeptide methyl ketone inhibitors of viral proteases” (priority 1986, dated 1988):
Where two headings read alike, the source gives them in different places. * marks the point of attachment. CH2Cl = ClC*

Tests used:
[1] = system: human poliomyelitis virus type 2; type: cell-based
human rhinovirus type 1A = type: cell-based
Poliovirus type 2 = type: cell-based
rhinovirus type 1A = type: cell-based
chymotrypsin = settings: inhibitor concentration of 600 ug/rnL; cited from earlier work
subtilisin BPN' = settings: compared within a series of peptide chloromethyl ketones; cited from earlier work

For `CC(=O)[C@H](CC(C)C)NC(=O)[C@H](C)NC(=O)CNC(=O)[C@H](Cc1ccccc1)NC(=O)OC(C)(C)C` [Boc-Phe-Gly-Ala-LeuCH3, reference compound], the “activity in the viral cleavage assay” value [1] was “failed to show activity” and the “activity in the viral cleavage assay” value (human rhinovirus type 1A) was “failed to show activity”.

In the case of `COC(=O)CCC(=O)N[C@@H](Cc1ccccc1)C(=O)NCC(=O)N[C@@H](CC(C)C)C(=O)N[C@@H](CC(C)C)C(C)=O` [MeOSuc-Phe-Gly-Leu-LeuCH3], the “activity in the viral cleavage assay” value ([1]; 50 µg/mL) is reported as “active”.

For `CC(=O)[C@H](CC(C)C)NC(=O)[C@H](C)NC(=O)CNC(=O)[C@H](Cc1ccccc1)NC(=O)OCc1ccccc1` [Z-Phe-Gly-Ala-LeuCH3], the “activity in the viral cleavage assay” value ([1]; 50 µg/mL) was “active”, the plaque reduction (Poliovirus type 2) was greater than 90% and the plaque reduction (rhinovirus type 1A) was greater than 90%. For the same compound, the cytotoxicity (HeLa cells) was “No cytotoxicity was observed”.

For Ac-Leu-Leu-PheCH3, the inhibition of chymotrypsin (chymotrypsin) is listed as “no inhibition was observed”.

For “acetyl-L-phenylalanyl-L-glycyl-L-alanyl-L-leucyl chloromethyl ketone (Ac-FGAL-CH2Cl; SMILES CC(=O)N[C@@H](Cc1ccccc1)C(=O)NCC(=O)N[C@@H](C)C(=O)N[C@@H](CC(C)C)C(=O)CCl) [Ac-Phe-Gly-Ala-LeuCH2CI]”, the “inhibition of subtilisin BPN'” value (subtilisin BPN') is given as “fastest inhibitor”.
